Experimental data reported in patent US10584159B2, “Renilla based biosensors for monitoring biomolecule localization and trafficking in cells” (The Royal Institution for the Advancement of …, priority 2014, dated 2020).
Starred links: 1 amine or outer side, 2 acyl side, 3 side chain; linkers in the order of their positions; H or OH if unused. Positions of bridges follow the written chain, without caps; N, C: chain ends. Non-standard residues stand in square brackets, D forms with d. Residues, ends and D or L forms follow the SMILES beside them. No end group written: not given here. *: point of attachment. Leu(3R-OH,Nα-propionyl) = CCC(=O)N[C@H](C(=O)*)[C@H](O)C(C)C; X1 = CC(C)[C@@H](O[*:3])[C@H](N[*:1])C(=O)[*:2]; NMeT = CN[C@H](C(=O)O)[C@@H](C)O; dPhLac = O=C(O)[C@H](O)Cc1ccccc1; NMeA = CN[C@@H](C)C(=O)O; NMeDha = C=C(NC)C(=O)O

Experiments:
AT1R [1] = molecular target: T1, AT1R (Homo sapiens, UniProt P30556); assay: AT1R trafficking to endosomes BRET (AT1R-RlucII/rGFP-endofinFYVE); assay type: cell-based; parameters: expressed in transfected cells; host or cells: HEK293SL (HEK293 for the screen)
T1 sequence (P30556 with tags, fused parts or gaps): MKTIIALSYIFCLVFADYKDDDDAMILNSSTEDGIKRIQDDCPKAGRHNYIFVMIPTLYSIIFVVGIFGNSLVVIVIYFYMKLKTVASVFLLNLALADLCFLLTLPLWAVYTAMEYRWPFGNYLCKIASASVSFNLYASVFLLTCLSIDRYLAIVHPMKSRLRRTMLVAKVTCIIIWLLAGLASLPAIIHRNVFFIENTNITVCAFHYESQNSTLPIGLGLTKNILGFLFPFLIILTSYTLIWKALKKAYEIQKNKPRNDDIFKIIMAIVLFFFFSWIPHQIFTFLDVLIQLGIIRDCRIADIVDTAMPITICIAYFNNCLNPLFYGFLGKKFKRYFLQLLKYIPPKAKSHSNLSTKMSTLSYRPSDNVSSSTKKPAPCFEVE
Procedure: (§1) BRET measurements for FIGS. 1B to 9D, 25D to 25F. The following day of transfection, cells were detached and replated onto poly-ornithine coated white 96-well plate at a density of 25,000 cells per well. The next day, cells were washed once with pre-warmed Tyrode's buffer (140 mM NaCl, 2.7 mM KCl, 1 mM CaCl2, 12 mM NaHCO3, 5.6 mM D-glucose, 0.5 mM MgCl2, 0.37 mM NaH2PO4, 25 mM HEPES, pH 7.4), and then stimulated with either various concentrations of ligands in Tyrode's buffer for the indicated time, or single concentration of ligands for various times at 37° C. For recycling experiment, after stimulating the cells with the ligands for 30 min at 37° C., they were washed either three times with ice-cold Tyrode's buffer or once with Tyrode's buffer/three times with acid (50 mM sodium citrate, pH 4.0)/two times with Tyrode's buffer. All the washing steps were performed on ice. […] The cell-permeable substrate, coelenterazine 400a was added at a final concentration of 5 μM in Tyrode's buffer 3-4 min before BRET measurements. […] The BRET signal was determined by calculating the ratio of the light intensity emitted by the GFP10 or rGFP over the light intensity emitted by the RlucII. All the BRET measurements were performed in triplicate at 37° C.
(§2) Data Analysis. Estimation of the t1/2 and the EC50 values for ligand-mediated endocytosis were calculated using the GraphPad® Prism curve fitting program The curves presented throughout this study, representing the best fits, and were generated using this GraphPad® Prism program as well.

AT1R [2] = molecular target: T1, AT1R; assay: AT1R endocytosis BRET at plasma membrane (AT1R-RlucII/lyn-rGFP); assay type: cell-based; parameters: signal peptide-Flag-human AT1R (spFlag-AT1R); signal peptide (N); expressed in transfected cells; host or cells: HEK293SL (HEK293 for the screen)
Procedure: as §1, §2

AT1R [3] = molecular target: T2, AT1R (Homo sapiens, UniProt P30556); assay: β-arrestin2 targeting to endosomes BRET (AT1R/βarr2-RlucII/rGFP-endofinFYVE); assay type: cell-based; conditions: 40 min
T2 construct: expressed in transfected cells; host or cells: HEK293SL
T2 sequence (P30556 1-359): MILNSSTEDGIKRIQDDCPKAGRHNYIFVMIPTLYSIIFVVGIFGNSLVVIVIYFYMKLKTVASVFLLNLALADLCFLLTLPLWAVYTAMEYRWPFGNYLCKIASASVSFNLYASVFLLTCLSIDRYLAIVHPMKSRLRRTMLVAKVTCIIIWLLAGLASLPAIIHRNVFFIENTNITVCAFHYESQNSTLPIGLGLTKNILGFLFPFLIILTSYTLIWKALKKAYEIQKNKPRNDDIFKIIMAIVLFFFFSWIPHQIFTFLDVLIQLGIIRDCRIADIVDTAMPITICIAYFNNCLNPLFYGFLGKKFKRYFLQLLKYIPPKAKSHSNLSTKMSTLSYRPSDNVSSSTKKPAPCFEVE
Procedure: (§3) BRET measurements for FIGS. 1B to 9D, 25D to 25F. The following day of transfection, cells were detached and replated onto poly-ornithine coated white 96-well plate at a density of 25,000 cells per well. The next day, cells were washed once with pre-warmed Tyrode's buffer (140 mM NaCl, 2.7 mM KCl, 1 mM CaCl2, 12 mM NaHCO3, 5.6 mM D-glucose, 0.5 mM MgCl2, 0.37 mM NaH2PO4, 25 mM HEPES, pH 7.4), and then stimulated with either various concentrations of ligands in Tyrode's buffer for the indicated time, or single concentration of ligands for various times at 37° C. For recycling experiment, after stimulating the cells with the ligands for 30 min at 37° C., they were washed either three times with ice-cold Tyrode's buffer or once with Tyrode's buffer/three times with acid (50 mM sodium citrate, pH 4.0)/two times with Tyrode's buffer. All the washing steps were performed on ice. Cells were then further incubated with Tyrode's buffer at 37° C. in a water bath for 45 min. The cell-permeable substrate, coelenterazine 400a was added at a final concentration of 5 μM in Tyrode's buffer 3-4 min before BRET measurements. Measurements were performed by using Synergy2 (BioTek®) microplate reader with a filter set of 410±80 nm and 515±30 nm for detecting the RlucII Renilla luciferase (donor) and GFP10 or rGFP (acceptor) light emissions, respectively. The BRET signal was determined by calculating the ratio of the light intensity emitted by the GFP10 or rGFP over the light intensity emitted by the RlucII. All the BRET measurements were performed in triplicate at 37° C.

AT1R [4] = molecular target: T1, AT1R; assay: AT1R sorting to rab11 vesicles BRET (AT1R-RlucII/rGFP-rab11); assay type: cell-based; parameters: signal peptide-Flag-human AT1R (spFlag-AT1R); signal peptide (N); expressed in transfected cells; host or cells: HEK293SL (HEK293 for the screen)
Procedure: as §3, with “The cell-permeable substrate, coelenterazine 400a was added at a final concentration of 5 μM in Tyrode's buffer 3-4 min before BRET measurements.” left out, “All the BRET measurements were performed in triplicate at 37° C.” left out

Gq = assay: RlucII-tagged Gq translocation to rGFP markers (BRET) with TPαR; assay type: cell-based, human; conditions: 100 nM Ubo-Qic 20 min
[5] = 100 nM Ubo, 30 min pre-incubation

Which results are given for “DRVYVHPG [DVG, [Asp^1,Val^5, Gly^8]-AngII]”?
time to maximal AT1R internalization into endosomes (AT1R [1]; 100 nM SI or 1 μM DVG): 10 min; less efficacious than AngII at promoting AT1R concentration in early endosomes (AT1R [1]; 100 nM SI or 1 μM DVG vs 100 nM AngII): 40%; receptor accumulation in endosomes, compared to AngII (AT1R [1]; 40 min): promoted less receptor accumulation in endosomes; EC50 (AT1R [2]; FIG. 6B, 30 min, read-out: potency to promote AT1R internalization): 75 nM; β-arrestin2 trafficking to endosomes with receptors, compared to AngII (AT1R [3]): weakly promoted; BRET signal relative to AngII (AT1R [4]; 100 nM SI, 1 μM DVG): overall higher BRET signals

What does the source list for `C=C1C(=O)N[C@@H](C)C(=O)N(C)[C@@H](C)C(=O)N[C@@H]([C@H](OC(=O)[C@@H](NC(=O)CC)[C@H](O)C(C)C)C(C)C)C(=O)N(C)[C@@H]([C@@H](C)OC)C(=O)O[C@H](C(C)C)[C@H](NC(C)=O)C(=O)O[C@H](Cc2ccccc2)C(=O)N1C` [Ubo-QIC] (Ac-[X1][dPhLac][NMeDha]A[NMeA][X1](Leu(3R-OH,Nα-propionyl))[NMeT](Me); ester 1-C)?
U46619 response of Gq translocation to rGFP-CAAX Hras, rGFP-CAAX CCIL and Golgi markers after Gq inhibitor (Gq): No response is observed; effect on DVG- and SI-mediated accumulation of receptors in endosomes (AT1R [1]; [5]): had no effect; reduction of targeting of AngII-bound AT1R to Rab5 containing endosomes (AT1R [1]; [5]): more than 25%; effect on AngII-dependent AT1R internalization (AT1R [2]; [5]): did not prevent; effect on AngII-bound AT1R in Rab11 vesicles (AT1R [4]; 100 nM Ubo, 100 nM AngII 30 min): increased AngII-bound AT1R in Rab 4 and Rab11 vesicles
